Test results as given in patent US20030152557A1, “Methods for inhibiting histone deacetylase-4” (priority 2001, published 2003).
d = 2'-deoxy (DNA); m = 2'-O-methyl

Columns and labels:
human HDAC-4 protein = assay: Western blot of HDAC-4 protein expression; format: cell-based; details: A549 cells, 48 hours
Procedure: Human cancer A549 cells were treated with AS1, AS2 or MM2 oligos for 48 hours. Whole cell lysates were analyzed by Western blotting using antibodies specific against human HDAC-4.
(§1) OSDN treatment conditions were as previously described.
(§2) Cells were lysed in buffer containing 1% Triton X-100, 0.5% sodium deoxycholate, 5 mM EDTA, 25 mM Tris-HCl, pH 7.5, plus protease inhibitors. Total protein was quantified by the protein assay reagent from Bio-Rad (Hercules, Calif.). 100 ug of total protein was analyzed by SDS-PAGE. Next, total protein was transferred onto a PVDF membrane and probed with various HDAC-specific primary antibodies. Rabbit anti-HDAC-1 (H-51), anti-HDAC-2 (H-54) antibodies (Santa Cruz Biotechnologies, Santa Cruz, Calif.) were used at 1:500 dilution. Rabbit anti-HDAC-3 antibody (Sigma, St. Louis, Mo.) was used at a dilution of 1:1000. Anti-HDAC-4 antibody was prepared as previously described (Wang, S. H. et al., (1999) Mol. Cell. Biol. 19:7816-27), and was used at a dilution of 1:1000. Anti-HDAC-6 antibody was raised by immunizing rabbits with a GST fusion protein containing a fragment of HDAC-6 protein (amino acid #990 to #1216, GenBank Accession No. AAD29048). Rabbit antiserum was tested and found only to react specifically to the human HDAC-6 isoform. HDAC-6 antiserum was used at 1:500 dilution in Western blots to detect HDAC-6 in total cell lysates. […]

human HDAC-4 mRNA = assay: Northern blot analysis of HDAC-4 RNA expression; format: cell-based; details: A549 cells, escalating doses, 24 hours
Procedure: Human cancer A549 cells were treated with escalating doses of AS1, AS2 or MM2 oligos for 24 hours. Total RNAs were harvested for Northern analysis.
Seventeen phosphorothioate ODNs containing sequences complementary to the 5′ or 3′ UTR of the human HDAC-4 gene (GenBank Accession No. AB006626) were screened as above. […] HDAC-4 MM oligo was created as a control; compared to the antisense oligo, it contains a 6-base mismatch.
(§3) Briefly, human A549 and/or T24 human bladder carcinoma cells were seeded in 10 cm tissue culture dishes one day prior to oligonucleotide treatment. The cell lines were obtained from the American Type Culture Collection (ATCC) (Manassas, Va.) and were grown under the recommended culture conditions. Before the addition of the oligonucleotides, cells were washed with PBS (phosphate buffered saline). Next, lipofectin transfection reagent (GIBCO BRL Mississauga, Ontario, CA), at a concentration of 6.25 μg/ml, was added to serum free OPTIMEM medium (GIBCO BRL, Rockville, Md.), which was then added to the cells. The oligonucleotides to be screened were then added directly to the cells (i.e., one oligonucleotide per plate of cells). Mismatched oligonucleotides were used as controls. The same concentration of oligonucleotide (e.g., 50 nM) was used per plate of cells for each oligonucleotide tested.
Cells were harvested, and total RNAs were analyzed by Northern blot analysis. […]

Human A549 cells = assay: cDNA array analysis of gene transcription; format: cell-based; details: 50 nM, two days, vs HDAC-4 mismatch oligo (MM2)
Procedure: as §3

human cancer cells = assay: cell growth analysis and apoptosis, cancer cells; format: cell-based; details: various human cancer cells, 50 nM
Procedure: (§4) In order to determine the effect of HDAC OSDNs on cell growth and cell death through apoptosis, A549 or T24 cells, MDAmb231 cells, and HMEC cells (ATCC, Manassas, Va.) were treated with HDAC OSDNs as previously described.
(§5) For the apoptosis study, cells were analyzed using the Cell Death Detection ELISA^Plus kit (Roche Diagnostic GmBH, Mannheim, Germany) according to the manufacturer's directions. Typically, 10,000 cells were plated in 96-well tissue culture dishes for 2 hours before harvest and lysis. Each sample was analyzed in duplicate. ELISA reading was done using a MR700 plate reader (DYNEX Technology, Ashford, Middlesex, England) at 410 nm. The reference was set at 490 nm.
Cells were harvested and cell numbers counted by trypan blue exclusion using a hemocytometer. Percentage of inhibition was calculated as (100-AS cell numbers/control cell numbers)%.

human HDAC-6 protein = assay: Western blot of HDAC-6 protein expression; format: cell-based; details: A549 cells, 50 nM, 48 hours
Procedure: as §1
as §2, with “lysates. Horse Radish Peroxidase conjugated secondary antibody was used at a dilution of 1:5000 to detect primary antibody binding.” for “lysates.”

human HDAC-6 RNA = assay: Northern blot analysis of HDAC-6 RNA expression; format: cell-based; details: T24 cells, 100 nM, 24 hours
Procedure: Thirteen phosphorothloate ODNs containing sequences complementary to the 5′ or 3′ untranslated regions of the human HDAC-6 gene (GenBank Accession No. AJ011972) were screened as above. […] HDAC-6 MM oligo was created as a control; compared to the antisense oligo, it contains a 7-base mismatch.
as §3
(§6) Cells were harvested, and total RNAs were analyzed by Northern blot analysis. Briefly, total RNA was extracted using RNeasy miniprep columns (QIAGEN). […]

T24 = assay: apoptosis, Cell Death Detection ELISA, T24; format: cell-based, human; details: 48 hour treatment
Procedure: as §3, §4, §5

MDAmb231 = assay: apoptosis, Cell Death Detection ELISA, MDAmb231; format: cell-based, human; details: 48 hour treatment
Procedure: as §3, §4, §5

A549 = assay: apoptosis, Cell Death Detection ELISA, A549; format: cell-based, human; details: 48 hour treatment
Procedure: as §3, §4, §5

HMEC = assay: apoptosis, Cell Death Detection ELISA, HMEC; format: cell-based, human; details: 48 hour treatment
Procedure: as §3, §4, §5

human HDAC-3 protein = assay: Western blot of HDAC-3 protein expression; format: cell-based; details: A549 cells, 50 nM, 48 hours
Procedure: as §1
as §2, with “lysates. Horse Radish Peroxidase conjugated secondary antibody was used at a dilution of 1:5000 to detect primary antibody binding.” for “lysates.”

human HDAC-3 mRNA = assay: Northern blot analysis of HDAC-3 RNA expression; format: cell-based; details: T24 cells, 100 nM, 24 hours
Procedure: Twenty-one phosphorothioate ODNs containing sequences complementary to the 5′ or 3′ UTR of the human HDAC-3 gene (GenBank Accession No. AF039703) were screened as above. […] HDAC-3 MM oligo was created as a control; compared to the antisense oligo, it contains a a 6-base mismatch.
as §3, §6

human HDAC-2 protein = assay: Western blot of HDAC-2 protein expression; format: cell-based; details: A549 cells, 50 nM, 48 hours
Procedure: as §1
as §2, with “lysates. Horse Radish Peroxidase conjugated secondary antibody was used at a dilution of 1:5000 to detect primary antibody binding.” for “lysates.”

human HDAC-2 RNA = assay: Northern blot analysis of HDAC-2 RNA expression; format: cell-based; details: T24 cells, 100 nM, 24 hours
Procedure: Twenty-four phosphorothioate ODNs containing sequences complementary to the 5′ or 3′ UTR of the human HDAC-2 gene (GenBank Accession No. U31814) were screened as above. […] HDAC-2 MM was created as a control; compared to the antisense oligo, it contains a 7-base mismatch.
as §3, §6

[1] = test system: T24 human bladder cancer cells; assay: inhibition of HDAC activity in whole cells (acetylated histone H-4 Western); format: cell-based; details: acetylated histone H-4 in T24 cells, 16 hours
Procedure: T24 human bladder cancer cells (ATCC, Manassas, Va.) growing in culture were incubated with test compounds for 16 hours. Histones were extracted from the cells by standard procedures (see e.g. Yoshida et al., supra) after the culture period. Twenty μg total core histone protein was loaded onto SDS/PAGE and transferred to nitrocellulose membranes, which were then reacted with polyclonal antibody specific for acetylated histone H-4 (Upstate Biotech Inc., Lake Placid, […].). Horse Radish Peroxidase conjugated secondary antibody was used at a dilution of 1:5000 to detect primary antibody binding. The secondary antibody binding was visualized by use of the Enhanced chemiluminescence (ECL) detection kit (Amersham-Pharmacia Biotech., Inc., Piscataway, N.J.). After exposure to film, acetylated H-4 signal was quantitated by densitometry.

[2] = test system: murine erythroleukemia cells; details: Yoshida et al. 1987; cited from earlier work
mammalian HDAC = details: Yoshida et al. 1990; cited from earlier work
A549 cells = assay: RNase protection assay of p21, GADD45 and Bax mRNA, A549; details: A549, TSA 250 ng/ml 16 hours vs lipofectin
Procedure: As a control, A549 cells were treated by lipofectin with or without TSA (250 ng/ml) treatment for 16 hours. […] Total RNA from cells was prepared using “RNeasy miniprep kit” from QIAGEN following the manufacturer's manual. Labeled probes used in the protection assays were synthesized using “hStress-1 multiple-probe template sets” from Pharmingen (San Diego, Calif., U.S.A.) according to the manufacturer's instructions. Protection procedures were performed using “RPA II™ Ribonuclease Protection Assay Kit” from Ambion, (Austin, Tex.) following the manufacturer's instructions. Quantitation of the bands from autoradiograms was done by using Cyclone™ Phosphor System (Packard Instruments Co. Inc., Meriden, Conn.).

Compound: 5-GCTGCCTGCCGTGCCCACCC-3′ (sugars from the 5' end m4 d12 m4, all phosphorothioate, methylation of C and T or U not given here) [HDAC-4 AS1, antisense oligo, human HDAC4 5′-UTR]
- expression of HDAC-4 protein (human HDAC-4 protein): inbibit HDAC-4 expression at protein level
- HDAC-4 expression at RNA level (human HDAC-4 mRNA): inbibit HDAC-4 expression at RNA level in a dose-dependent manner
- fold change CDK4 (Human A549 cells): −3 fold
- fold change Egr-1 (Human A549 cells): 3 fold
- fold change GADD45 (Human A549 cells): 3 fold
- fold change GADD153 (Human A549 cells): 6 fold
- fold change IL-15 (Human A549 cells): 4 fold
- fold change IRF (Human A549 cells): 2 fold
- fold change Notch-4 (Human A549 cells): −3 fold
- fold change PLK (Human A549 cells): −4 fold
- fold change basic FGF (Human A549 cells): 2 fold
- fold change cyclin A2 (Human A549 cells): −3 fold
- fold change cyclin B1 (Human A549 cells): −3 fold
- fold change p21 (Human A549 cells): 4 fold
- fold change topo II α (Human A549 cells): −5 fold

Compound: 5′-CAGGCTGGAATGAGCTACAG-3′ (sugars from the 5' end m4 d12 m4, all phosphorothioate, methylation of C not given here) [HDAC-6, antisense oligo, human HDAC6 3′-UTR]
- effect on cancer cell growth and apoptosis (human cancer cells): no effect on cancer cell growth or apoptosis
- expression of HDAC-6 protein (human HDAC-6 protein): specifically inhibits the expression of the respective HDAC isotype protein
- HDAC-6 RNA expression (antisense activity) (human HDAC-6 RNA): antisense activity to human HDAC-6
- Apoptosis T24 (T24; HDAC isotype-specific OSDN): − (“−”: < = 2x fold over non-specific background)
- Apoptosis MDAmb231 (MDAmb231; HDAC isotype-specific OSDN): − (“−”: < = 2x fold over non-specific background)
- Apoptosis A549 (A549; HDAC isotype-specific OSDN): − (“−”: < = 2x fold over non-specific background)
- Apoptosis HMEC (HMEC; HDAC isotype-specific OSDN): − (“−”: < = 2x fold over non-specific background)

Compound: 5′-CGCTTTCCTTGTCATTGACA-3′ (sugars from the 5' end m4 d12 m4, all phosphorothioate, methylation of C and T or U not given here) [HDAC-3, antisense oligo, human HDAC3 3′-UTR]
- effect on cancer cell growth and apoptosis (human cancer cells): no effect on cancer cell growth or apoptosis
- Apoptosis T24 (T24; HDAC isotype-specific OSDN): − (“−”: < = 2x fold over non-specific background)
- expression of HDAC-3 protein (human HDAC-3 protein): specifically inhibits the expression of the respective HDAC isotype protein
- Apoptosis MDAmb231 (MDAmb231; HDAC isotype-specific OSDN): − (“−”: < = 2x fold over non-specific background)
- Apoptosis A549 (A549; HDAC isotype-specific OSDN): − (“−”: < = 2x fold over non-specific background)
- Apoptosis HMEC (HMEC; HDAC isotype-specific OSDN): − (“−”: < = 2x fold over non-specific background)
- HDAC-3 RNA expression (antisense activity) (human HDAC-3 mRNA): antisense activity to human HDAC-3

Compound: 5′-GCTGAGCTGTTCTGATTTGG-3′ (chemistry not given here) [HDAC-2, antisense oligo, human HDAC2 3′-UTR]
- effect on cancer cell growth and apoptosis (human cancer cells): minimal effect on cancer cell growth inhibition
- expression of HDAC-2 protein (human HDAC-2 protein): specifically inhibits the expression of the respective HDAC isotype protein
- Apoptosis T24 (T24; HDAC isotype-specific OSDN): − (“−”: < = 2x fold over non-specific background)
- Apoptosis MDAmb231 (MDAmb231; HDAC isotype-specific OSDN): − (“−”: < = 2x fold over non-specific background)
- Apoptosis A549 (A549; HDAC isotype-specific OSDN): − (“−”: < = 2x fold over non-specific background)
- HDAC-2 RNA expression (antisense activity) (human HDAC-2 RNA): antisense activity to human HDAC-2
- Apoptosis HMEC (HMEC; HDAC isotype-specific OSDN): − (“−”: < = 2x fold over non-specific background)

Compound: 5′-TACAGTCCATGCAACCTCCA-3′ (sugars from the 5' end m4 d12 m4, all phosphorothioate, methylation of C and T or U not given here) [HDAC4 AS2, antisense oligo, human HDAC4 3′-UTR]
- expression of HDAC-4 protein (human HDAC-4 protein): inbibit HDAC-4 expression at protein level
- HDAC-4 expression at RNA level (human HDAC-4 mRNA): inbibit HDAC-4 expression at RNA level in a dose-dependent manner

Compound: CC(/C=C/C(=O)Nc1ccccc1N)=C\C(C)C(=O)c1ccc(N(C)C)cc1 (stereo not drawn) [MG 24 29]
- 4-Ac [1]: 1 µM

Compound: Nc1ccccc1NC(=O)CCCCCCC(=O)c1ccc(-c2ccccc2)cc1 [MG 36 50]
- 4-Ac [1]: 10 µM

Compound: Cc1ccc(S(=O)(=O)Nc2ccc(/C=C/C(=O)Nc3ccccc3N)cc2)cc1 [MG 37 63]
- 4-Ac [1]: 5 µM

Compound: Nc1ccccc1NC(=O)CCCCCCC(=O)c1ccc(-c2ccccc2)nc1 [MG 38 69]
- 4-Ac [1]: 5 µM

Compound: CC(/C=C/C(=O)NO)=C\[C@@H](C)C(=O)c1ccc(N(C)C)cc1 [TSA, (R)-Trichostatin A, reference compound]
- Apoptosis T24 (T24; 100 ng/ml): ++ (“++”: 3-5X fold)
- induction of differentiation [2]: potent inducer of differentiation in murine erythroleukemia cells
- Apoptosis MDAmb231 (MDAmb231; 100 ng/ml): ++ (“++”: 3-5X fold)
- Apoptosis A549 (A549; 100 ng/ml): ++ (“++”: 3-5X fold)
- Apoptosis HMEC (HMEC; 100 ng/ml): + (“+”: 2-3X fold)
- inhibition of mammalian HDAC (mammalian HDAC): potent inhibitor of mammalian HDAC
- fold induction of transcription Bax (A549 cells): 0.8 fold
- fold induction of transcription GADD45 (A549 cells): 0.6 fold
- fold induction of transcription p21 (A549 cells): 2.8 fold
